Results on nine compounds are retold here after US5409956A, “Indan derivative and thromboxane antagonist containing the same” (Zeria Pharmaceutical Co., Ltd., priority 1991, dated 1995).

Experiment [1] deals with Human platelet aggregation. In words: Human platelet aggregation inhibitory action (in vitro), U46619-induced. Type of experiment: cell-based. The conditions noted are these: human PRP, approximately 4×10^5 cells/ml, 1 μM U46619, 37° C., Born's method, read-out: IC50 (concentration required for inhibiting the platelet aggregation induced by 1 μM of U46619 by 50%). As to the method: Human platelet aggregation inhibitory action (in vitro):
Blood samples were collected from healthy humans. 9 parts by volume of the collected blood was mixed with 1 part by volume of an aqueous 3.8%(W/v) trisodium citrate, and the mixture was subjected to centrifugal separation for collecting the supernatant-to prepare a platelet rich plasma (PRP). A further centrifugation was-performed to separate a platelet poor plasma (PPP). PRP was diluted with PPP to adjust the number of platelets to approximately 4×10^5 cells/ml. Subsequently, 200 micro liters of PRP were added with the […] and 25 micro liters of an equimolar aqueous sodium hydrogencarbonate solution, and stirred for 2 minutes at 37° C. Thereafter, U46619 was added thereto for inducing platelet aggregation. The platelet aggregation was measured in accordance with a Born's method ("Nature", vol 194, page 927 (1962)), and inhibition against the platelet aggregation was examined. The platelet aggregation inhibitory action of the test compounds was expressed as the IC50 value (concentration required for inhibiting the platelet aggregation induced by 1 μM of U46619 by 50%).

In experiment [2] the test system is U46619 induced contraction in rat aorta. Nature of the experiment: Inhibitory effect on U46619 induced contraction in rat aorta. Format: cell-based, SD male rat. The conditions noted are these: relaxation of contraction by 10^-7 M U46619, rat thoracic aorta, 37° C., logit method. As to the method:
Inhibitory effect on U46619 induced contraction in rat aorta:
The sample was kept at 37° C., bubbled with 95% oxygen gas containing 5% CO2, and suspended in a 10 ml organ bath filled with a Krebs-Henseleit solution at 2 g resting tension. 10^-7 M of U46619 which is a stable active substance of TXA2 was added portionwise. After the contraction responses were stabilized, the test compound was added to the organ bath, and its antagonism was evaluated. A concentration-relaxation curve was obtained, to which was applied a logit method to obtain pIC50 values.

pIC50: −log10 of the molar value.

Turning to `O=C(O)COc1ccc2c(c1)CC(CNS(=O)(=O)c1ccc(Cl)cc1)C2` (stereo not shown) [Example 30, 2-[(4-chlorophenyl)sulfonylaminomethyl)indan-5-hydroxyacetic acid], the pIC50 in experiment [1] was 6.51. Turning to `O=C(O)Cc1ccc2c(c1)CC(CNS(=O)(=O)c1ccccc1)C2` (stereo not shown) [Example 1, [2-(phenylsulfonylaminomethyl)indan-5-yl]acetic acid], the pIC50 was 6.14 in experiment [1] and 7.89 in experiment [2]. The matching figures for `O=C(O)Cc1ccc2c(c1)CC(CNS(=O)(=O)c1ccc(Cl)cc1)C2` (stereo not shown) [Example 24, [2-[(4-chlorophenyl)sulfonylaminomethyl)indan-5-yl]acetic acid]: 6.11 and 8.52. In the case of `O=C(O)c1ccc2c(c1)CC(CCNS(=O)(=O)c1ccc(Cl)cc1)C2` (stereo not shown) [Example 34, [2-[2-(4-chlorophenyl)sulfonylaminoethyl)indan-5-yl]-carboxylic acid], the pIC50 in experiment [1] was 6.22.

Turning to `O=C(O)Cc1ccc2c(c1)CC(CCNS(=O)(=O)c1ccccc1)C2` (stereo not shown) [Example 25, [2-(2-phenylsulfonylaminoethyl)indan-5-yl]acetic acid], the pIC50 was 5.61 in experiment [1] and 6.50 in experiment [2]. With `O=C(O)COc1ccc2c(c1)CC(CNS(=O)(=O)c1ccccc1)C2` (stereo not shown) [Example 29, 2-(phenylsulfonylaminomethyl)indan-5-hydroxyacetic acid], the pIC50 in experiment [2] is 7.50. Turning to `O=C(O)COc1ccc(CCNS(=O)(=O)c2ccccc2)cc1` [Control compound, 4-(2-phenylsulfonylaminoethyl)phenoxy acetic acid, reference compound], the pIC50 in experiment [1] is 5.60; in experiment [2], 6.37. On to `O=C(O)c1ccc2c(c1)CC(CNS(=O)(=O)c1ccc(Cl)cc1)C2` (stereo not shown) [Example 33, [2-[(4-chlorophenyl)sulfonylaminomethyl]-indan-5-yl]carboxylic acid], for which, in experiment [1], the pIC50 is 6.07. With `O=C(O)CCC(=O)c1ccc2c(c1)CC(CNS(=O)(=O)c1ccc(Cl)cc1)C2` (stereo not shown) [Example 40], the pIC50 in experiment [1] is 5.95.
